# Assay results as given in US11154519B2, “Inhibitors and their uses” (MEDICAL RESEARCH COUNCIL, priority 2015, dated 2021).
# Where two headings read alike, the source gives them in different places.
# Assays:
# [1] = target: T1, PPP1R15A-PP1 complex (Homo sapiens, UniProt O75807); test: SPR steady-state binding to R15A-PP1 holophosphatase
# T1 construct: cDNAs encoding amino acids 325-636 of PPP1R15A and 340-698 of PPP1R15B were His-tagged and cloned into pMAL-c5x; made in house; host or cells: R15A: E. coli BL21-Gold (pMAL-c5x); PP1γ: Sf9 insect cells (baculovirus, pDW464)
# Protocol: (§1) PPP1R15A^325-636 and PPP1R15B^340-698 were expressed and purified as follows: the cDNAs encoding amino acids 325-636 of PPP1R15A and 340-698 of PPP1R15B were His-tagged and cloned into pMAL-c5x. Recombinant PPP1R15A/B were expressed in BL21-Gold cells and purified by affinity chromatography on a HisTrap HP column (GE Healthcare), followed by a MBPTrap HP column (GE Healthcare). The proteins were analyzed on BOLT SDS-PAGE 4-12% Bis-Tris gels (Life Technologies) stained with SimplyBlue SafeStain (Life Technologies). cDNA encoding for human PP1γ was cloned into the baculovirus transfer vector pDW464 to add a biotin acceptor peptide (BAP). The vector also encodes for the E. coli biotin holoenzyme synthetase (BirA), so that BAP-tagged proteins can be biotinylated in vivo in Spodoptere frugiperda (Sf9) insect cells (Duffy et al., Anal. Biochem., 262, 122-128, 1998). The Bac-to-Bac baculovirus expression system (Life Technologies) was used to generate the recombinant bacmid DNA and Sf9 insect cells were used to amplify the viral stocks Cultures were harvested by centrifuging at 1,200 g for 15 minutes, cell pellets were resuspended in lysis buffer (50 mM Tris pH 7.4, 150 mM NaCl, 0.2% Triton, 5% Glycerol, 1 PiC tablet (Roche) per 50 ml and 0.2 mM PMSF) and followed by gentle sonication. The protein was first purified on a 5 ml HiTrap Q HP column (GE Healthcare) followed by a HiLoad 16/600 Superdex 200 column (GE Healthcare). The positive fractions confirmed by SDS-PAGE and western blot were pooled, concentrate to ˜1 μM and stored at −80° C.
# (§2) A Biacore T200 (GE Healthcare) system was used for all experiments and biotinylated PP1 was captured using a Sensor Chip SA (GE Healthcare, catalog no BR-1005-31). The streptavidin coated surface was activated by 1 min injection with a solution of 50 mM NaOH and 1 M NaCl. Biotin-PP1 was diluted in the running buffer (50 mM Tris pH 7.5, 100 mM NaCl, 0.1 mM EGTA, 1 mM MnCl2, 0.05% Tween 20) and injected at approximately 300 nM concentration directly to streptavidin coated surface for 100 sec or to reach immobilization level of biotin-PP1 corresponding to ˜7000 RU. A blank immobilization was performed for one of the SA sensor chip surface to use as a reference.
# (§3) With minor deviations, the same procedure and conditions were used in all binding experiments. Small molecules were stored as 50 mM stock solutions in 100% DMSO. Prior to determining binding constants, serial dilutions of either 12 or 8 concentrations of the compounds were prepared in the running buffer in a 96-well plate. Prior to each compound dilution series the regulatory subunit, R15A or R15B, was diluted to […] in the running buffer and captured on the biotin-PP1 surface, to form the holophosphatase complex on the sensor chip surface. Then, without regenerating the surface, the compound dilution series was injected onto the surface of the chip Sensorgrams were analyzed using the Biacore T200 evaluation software and the binding constants determined based on a steady-state model. Kinetic experiments are carried out using different concentrations of the compound and their respective equilibrium binding levels determined.
# (§4) Surface Plasmon Resonance (SPR) was used to measure the binding affinity of compounds to the PPP1R15A/B-PP1 phosphatase complex. Biotin acceptor peptide (BAP) was fused to the N-terminus of PP1γ, which enables the biotinylation of the BAP-tagged protein in Sf9 insect cells. After purification the BAP-PP1γ protein was captured on a streptavidin sensor chip (SA-chip, GE healthcare) to a response level of ˜5.000 RU. Using controlled biotinylation enables orientated and uniform immobilization on the sensor chip surface. The PP1γ was then used to capture PPP1R15A/B and form a holophosphatase complex on the surface of the streptavidin chip. This complex can then be used to test binding of compounds. 10 μM PPP1R15A/B protein concentration was used to form the holophosphatase complex during a 80 s injection. […]
# [2] = target: T2, PPP1R15B-PP1 (Homo sapiens, UniProt Q5SWA1); test: SPR steady-state binding to R15B-PP1 holophosphatase
# T2 construct: cDNAs encoding amino acids 325-636 of PPP1R15A and 340-698 of PPP1R15B were His-tagged and cloned into pMAL-c5x; made in house; host or cells: R15B: E. coli BL21-Gold (pMAL-c5x); PP1γ: Sf9 insect cells (baculovirus, pDW464)
# Protocol: as §1, §2, §3, §4
# [3] = tested on: HeLa cells; test: Cytoprotection against ER stress (tunicamycin), IncuCyte; format: cell-based; details: Homo sapiens, 250 ng/ml Tunicamycin, 72 hours, compound 0-20 μM, read-out: Cytoprotection from Tm (compared to GNB)
# Protocol: HeLa cells (40,000 cells/ml) were plated in a 96-well plate and treated with different concentrations (0-20 μM) of a compound as indicated in the presence of 250 ng/ml Tunicamycin for 72 hours. To monitor cell death 1/2000 dilution of the CellTox green dye (Promega) was added to the media. The growth of the cells was monitored over time and pictures taken every 2 hours with the IncuCyte ZOOM system and analysed by the IncuCyte ZOOM software (Essen BioScience). […] Cytoprotection against ER stress can be measured by a suitable assay. In this instance, cytoprotection was measured in HeLa cells in which ER stress was elicited by the addition of media containing tunicamycin, a drug that blocks N-glycosylation, thereby preventing protein folding and inducing the unfolded protein response. Cell viability was then detected in the presence and absence of a compound listed in Table 1 after a set period of time, by monitoring cell growth over time. Cytoprotection from ER stress was measured in terms of the percentage increase in viable cells (relative to control) after ER stress.
# [4] = SPR steady-state, MBP-R15A325-636-His captured on bio-PP1c, 10° C., read-out: R15A (KD)
# [5] = SPR steady-state, MBP-R15B340-698-His captured on bio-PP1c, 10° C., read-out: R15B (KD)
# T2 sequence (Q5SWA1 340-698): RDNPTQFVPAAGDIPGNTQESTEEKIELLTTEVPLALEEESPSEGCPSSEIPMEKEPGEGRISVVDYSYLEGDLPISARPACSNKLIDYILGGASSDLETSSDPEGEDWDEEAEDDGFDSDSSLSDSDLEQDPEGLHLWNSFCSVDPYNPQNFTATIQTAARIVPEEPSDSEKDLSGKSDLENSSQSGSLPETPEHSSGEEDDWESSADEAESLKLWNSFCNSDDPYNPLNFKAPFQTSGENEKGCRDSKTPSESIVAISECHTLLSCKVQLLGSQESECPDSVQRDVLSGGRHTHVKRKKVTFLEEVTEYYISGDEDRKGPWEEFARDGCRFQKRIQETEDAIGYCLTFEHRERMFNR
# T2 sequence (P36873 whole entry partner, the tested form may be a part): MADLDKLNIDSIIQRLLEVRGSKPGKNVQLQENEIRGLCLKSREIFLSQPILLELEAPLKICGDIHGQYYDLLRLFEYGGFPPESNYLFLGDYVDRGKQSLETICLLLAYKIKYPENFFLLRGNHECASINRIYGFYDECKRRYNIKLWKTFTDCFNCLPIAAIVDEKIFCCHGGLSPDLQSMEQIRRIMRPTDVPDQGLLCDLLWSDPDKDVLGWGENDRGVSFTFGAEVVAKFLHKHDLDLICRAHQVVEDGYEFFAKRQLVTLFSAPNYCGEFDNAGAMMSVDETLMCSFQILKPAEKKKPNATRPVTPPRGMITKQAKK
# T1 sequence (O75807 325-636): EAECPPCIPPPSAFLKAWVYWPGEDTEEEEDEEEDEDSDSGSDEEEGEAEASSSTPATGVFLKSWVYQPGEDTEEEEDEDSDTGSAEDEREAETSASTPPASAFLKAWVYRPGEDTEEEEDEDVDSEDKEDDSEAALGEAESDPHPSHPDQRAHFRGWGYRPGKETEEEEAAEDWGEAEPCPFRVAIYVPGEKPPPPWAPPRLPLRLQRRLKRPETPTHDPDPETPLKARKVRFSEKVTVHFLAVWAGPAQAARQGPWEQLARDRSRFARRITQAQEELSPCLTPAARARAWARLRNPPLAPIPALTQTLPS
# T1 sequence (P36873 whole entry partner, the tested form may be a part): as the sequence (P36873 whole entry partner, the tested form may be a part) above
SMILES,"Kd [1, 4]","Kd [2, 5]",Emax [3],"Kd ([1]; SPR, FIG. 1, read-out: KD for PPP1R15A-PP1)","Kd ([2]; SPR, FIG. 1, read-out: KD for PPP1R15B-PP1)"
"[H]/N=C(\N)NN=Cc1cc(Cl)cc(Cl)c1Cl [Compound 10, (E)-2-(2,3,5-trichlorobenzylidene)hydrazine-1-carboximidamide]",0.391 ± 0.14 µM,0.44 ± 0.09 µM,85%,–,–
"[H]/N=C(\N)NN=Cc1ccc(F)c(Cl)c1Cl [Compound 14, (E)-2-(2,3-dichloro-4-fluorobenzylidene)hydrazine-1-carboximidamide]",5.45 ± 1.48 µM,5.43 ± 1.26 µM,100%,–,–
"[H]/N=C(\N)NN=Cc1cc(Cl)c(F)c(Cl)c1 [Compound 5, (E)-2-(3,5-dichloro-4-fluorobenzylidene)hydrazine-1-carboximidamide]",8.45 ± 0.41 µM,2.67 ± 0.4 µM,48%,–,–
"[H]/N=C(\N)NN=Cc1cc(Cl)ccc1Cl [Compound 26, (E)-2-(2,5-dichlorobenzylidene)hydrazine-1-carboximidamide]",23.1 ± 0.9 µM,30 ± 2.3 µM,57%,–,–
"[H]/N=C(\N)NN=Cc1c(Cl)ccc(Cl)c1Cl [Compound 31, (E)-2-(2,3,6-trichlorobenzylidene)hydrazine-1-carboximidamide]",11.1 ± 1.6 µM,14.3 ± 0.7 µM,99%,–,–
"[H]/N=C(\N)NN=Cc1cccc(Cl)c1 [Compound 24, (E)-2-(3-chlorobenzylidene)hydrazine-1-carboximidamide]",18.1 ± 7.57 µM,18.7 µM,62%,–,–
"[H]/N=C(\N)NN=Cc1cc(F)c(Cl)cc1Cl [Compound 7, (E)-2-(2,4-dichloro-5-fluorobenzylidene)hydrazine-1-carboximidamide]",10.2 ± 2.57 µM,4.34 ± 2.35 µM,46%,–,–
"[H]/N=C(\N)NN=Cc1ccc(F)c(Cl)c1 [Compound 15, (E)-2-(3-chloro-4-fluorobenzylidene)hydrazine-1-carboximidamide]",11.2 µM,7.68 ± 2.18 µM,46%,–,–
"[H]/N=C(\N)NN=Cc1cc(F)ccc1Cl [Compound 20, (E)-2-(2-chloro-5-fluorobenzylidene)hydrazine-1-carboximidamide]",5.67 ± 0.72 µM,5.17 ± 0.69 µM,88%,–,–
"[H]/N=C(\N)NN=Cc1cc(F)cc(F)c1Cl [Compound 29, (E)-2-(2-chloro-3,5-difluorobenzylidene)hydrazine-1-carboximidamide]",7.87 ± 1.48 µM,4.06 µM,62%,–,–
"[H]/N=C(\N)NN=Cc1cc(Cl)cc(Cl)c1 [Compound 34, (E)-2-(3,5-dichlorobenzylidene)hydrazine-1-carboximidamide]",17.2 ± 1.9 µM,31.3 ± 2 µM,57%,–,–
"N=C(N)N/N=C/c1cc(Cl)c(Cl)c(Cl)c1 [Compound 3, (E)-2-(3,4,5-trichlorobenzylidene)hydrazine-1-carboximidamide]",4.49 ± 1.47 µM,0.149 µM,52%,–,–
"[H]/N=C(\N)NN=Cc1cccc(Cl)c1F [Compound 30, (E)-2-(3-chloro-2-fluorobenzylidene)hydrazine-1-carboximidamide]",5.15 ± 1.7 µM,12.3 ± 0.6 µM,85%,–,–
"[H]/N=C(\N)NN=Cc1cccc(Cl)c1Br [Compound 9, (E)-2-(2-bromo-3-chlorobenzylidene)hydrazine-1-carboximidamide]",13.6 ± 0.8 µM,39.6 ± 5.9 µM,67%,–,–
"[H]/N=C(\N)NN=Cc1cccc(F)c1 [Compound 23, (E)-2-(3-fluorobenzylidene)hydrazine-1-carboximidamide]",1.42 µM,1.05 ± 0.32 µM,53%,–,–
"[H]/N=C(\N)NN=Cc1cccnc1Cl [Compound 21, (E)-2-((2-chloropyridin-3-yl)methylene)hydrazine-1-carboximidamide]",0.832 µM,0.537 µM,41%,–,–
"[H]/N=C(\N)NN=Cc1cccc(Cl)c1Cl [Compound 16, (E)-2-(2,3-dichlorobenzylidene)hydrazine-1-carboximidamide]",1.05 ± 0.013 µM,–,92%,1 µM,0.035 µM
"[H]/N=C(\N)NN=Cc1ccc(Cl)c(Cl)c1Cl [Compound 6, (E)-2-(2,3,4-trichlorobenzylidene)hydrazine-1-carboximidamide]",5.43 ± 1.1 µM,9.09 ± 1.37 µM,61%,–,–
"[H]/N=C(\N)NN=Cc1ccc(Cl)nc1Cl [Compound 22, (E)-2-((2,6-dichloropyridin-3-yl)methylene)hydrazine-1-carboximidamide]",7.62 µM,12.3 µM,48%,–,–
"[H]/N=C(\N)NN=Cc1ccc(Cl)c(Cl)c1 [Compound 11, (E)-2-(3,4-dichlorobenzylidene)hydrazine-1-carboximidamide]",16.2 ± 2.1 µM,13.4 ± 0.47 µM,34%,–,–
"[H]/N=C(\N)NN=Cc1ccc(Cl)c(F)c1 [Compound 8, (E)-2-(4-chloro-3-fluorobenzylidene)hydrazine-1-carboximidamide]",6.37 ± 1.03 µM,11.3 µM,0%,–,–
"[H]/N=C(\N)NN=Cc1ccc(Cl)cc1 [Compound 1, (E)-2-((4-chlorophenyl)methylene)hydrazine-1-carboximidamide]",8.32 ± 0.14 µM,7.33 ± 1.79 µM,0%,–,–
"N=C(N)N/N=C/c1cc(Cl)c(Cl)cc1F [Compound 18, (E)-2-(4,5-dichloro-2-fluorobenzylidene)hydrazine-1-carboximidamide]",10.2 ± 1.62 µM,4.85 ± 0.14 µM,54%,–,–
"[H]/N=C(\N)NN=Cc1ccccc1F [Compound 17, (E)-2-(2-fluorobenzylidene)hydrazine-1-carboximidamide]",13 ± 0.5 µM,18.1 ± 1.8 µM,66%,–,–
"[H]/N=C(\N)NN=Cc1ccc(Cl)c(F)c1Cl [Compound 13, (E)-2-(2,4-dichloro-3-fluorobenzylidene)hydrazine-1-carboximidamide]",4.62 ± 0.59 µM,6.68 ± 2.34 µM,73%,–,–
